For assay [1], the target named is T1, baculovirus-expressed ALK (Homo sapiens, UniProt Q9UM73).
T1 construct: host or cells: baculovirus expression system
Briefly: ALK Kinase Assay (ELISA-type, time-resolved fluorescence). It is filed as biochemical. The following applies: 1 μM ATP (Km level); read-out: ALK Activity (ALK Kinase Inhibition, IC50). In short, it runs like this: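 Substrate coating: phospholipase C-γ, 10 μg/mL in TBS. Kinase step: 30 ng/ml ALK, 15 min, 37° C. Detection and analysis: Eu-N1 PT66 antibody, with IC50 fitted as a sigmoidal variable-slope dose-response curve.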
(In general: ELISA stands for enzyme-linked immunosorbent assay.)

Assay [2] deals with T2, c-Met (cytoplasmic domain) (Homo sapiens, UniProt P08581).
T2 construct: 10 ng/mL c-Met (cytoplasmic domain, Invitrogen Corporation #PV3143); purchased Invitrogen Corporation PV3143
Briefly: c-Met Kinase Assay (same methods as for ALK, with modifications). It is filed as biochemical. The following applies: 1 μM ATP (Km level); read-out: cMet Activity (c-Met Kinase Inhibition, IC50). In short, it runs like this:
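This plate-based kinase format uses immobilized phospholipase C-γ as substrate, phosphorylated by c-Met cytoplasmic domain (10 ng/mL) at 37° C for 15 minutes.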

The values below come from patent publication US8148391B2 (Cephalon, Inc., priority 2006, dated 2012).

T2 sequence (P08581 956-1390 limits assumed): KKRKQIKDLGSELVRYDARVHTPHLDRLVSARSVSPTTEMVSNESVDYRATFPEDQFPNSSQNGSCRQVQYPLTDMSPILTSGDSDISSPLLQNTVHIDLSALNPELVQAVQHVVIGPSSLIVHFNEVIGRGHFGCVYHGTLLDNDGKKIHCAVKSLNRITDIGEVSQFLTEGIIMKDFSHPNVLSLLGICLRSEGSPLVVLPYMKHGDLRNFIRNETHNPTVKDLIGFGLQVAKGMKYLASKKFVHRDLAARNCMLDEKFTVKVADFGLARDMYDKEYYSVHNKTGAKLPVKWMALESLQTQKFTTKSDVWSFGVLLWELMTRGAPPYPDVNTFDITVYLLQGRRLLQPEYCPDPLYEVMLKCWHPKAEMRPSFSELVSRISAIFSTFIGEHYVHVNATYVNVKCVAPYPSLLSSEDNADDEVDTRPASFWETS
T1 sequence (Q9UM73 19-1620): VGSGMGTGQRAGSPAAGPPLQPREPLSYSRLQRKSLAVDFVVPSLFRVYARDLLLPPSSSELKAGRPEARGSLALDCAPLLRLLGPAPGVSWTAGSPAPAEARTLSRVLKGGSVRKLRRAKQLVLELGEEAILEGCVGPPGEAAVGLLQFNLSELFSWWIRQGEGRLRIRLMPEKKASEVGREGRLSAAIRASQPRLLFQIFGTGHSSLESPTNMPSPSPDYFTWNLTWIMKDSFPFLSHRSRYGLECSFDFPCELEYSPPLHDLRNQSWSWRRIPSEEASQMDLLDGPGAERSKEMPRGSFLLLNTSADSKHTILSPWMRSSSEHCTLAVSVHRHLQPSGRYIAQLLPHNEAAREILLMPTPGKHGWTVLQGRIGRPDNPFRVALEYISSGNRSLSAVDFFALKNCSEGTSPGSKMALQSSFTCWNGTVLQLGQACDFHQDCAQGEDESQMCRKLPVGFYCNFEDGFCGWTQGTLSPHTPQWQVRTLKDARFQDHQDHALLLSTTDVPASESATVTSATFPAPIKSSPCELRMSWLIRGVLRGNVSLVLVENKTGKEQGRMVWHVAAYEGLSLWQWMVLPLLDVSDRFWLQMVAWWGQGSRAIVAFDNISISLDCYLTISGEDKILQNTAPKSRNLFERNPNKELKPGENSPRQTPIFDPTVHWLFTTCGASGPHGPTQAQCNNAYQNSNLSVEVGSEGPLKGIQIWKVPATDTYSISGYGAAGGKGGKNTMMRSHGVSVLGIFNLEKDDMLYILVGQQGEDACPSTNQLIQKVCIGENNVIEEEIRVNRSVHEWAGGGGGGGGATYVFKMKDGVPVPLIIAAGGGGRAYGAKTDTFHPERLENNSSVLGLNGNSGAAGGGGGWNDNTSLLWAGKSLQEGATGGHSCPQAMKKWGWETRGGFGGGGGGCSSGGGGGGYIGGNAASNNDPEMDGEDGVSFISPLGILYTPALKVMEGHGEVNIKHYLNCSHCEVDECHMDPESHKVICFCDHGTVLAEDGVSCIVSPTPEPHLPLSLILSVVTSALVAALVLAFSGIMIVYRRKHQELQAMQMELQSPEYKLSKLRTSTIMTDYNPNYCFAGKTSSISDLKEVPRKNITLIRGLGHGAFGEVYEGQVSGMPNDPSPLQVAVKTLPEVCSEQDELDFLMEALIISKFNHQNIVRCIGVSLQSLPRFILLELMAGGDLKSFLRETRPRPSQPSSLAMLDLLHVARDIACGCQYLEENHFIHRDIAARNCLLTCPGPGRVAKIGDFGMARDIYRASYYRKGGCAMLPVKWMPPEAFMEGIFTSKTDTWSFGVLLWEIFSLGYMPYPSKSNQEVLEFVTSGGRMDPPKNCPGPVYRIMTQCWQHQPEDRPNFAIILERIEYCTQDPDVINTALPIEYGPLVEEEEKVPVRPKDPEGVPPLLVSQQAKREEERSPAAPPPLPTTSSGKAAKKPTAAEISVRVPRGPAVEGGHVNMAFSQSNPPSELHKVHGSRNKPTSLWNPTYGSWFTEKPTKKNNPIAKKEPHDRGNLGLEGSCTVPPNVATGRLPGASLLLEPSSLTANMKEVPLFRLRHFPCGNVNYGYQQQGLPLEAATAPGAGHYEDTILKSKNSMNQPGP

The IC50 is the point on the concentration scale where inhibition reaches its midpoint. For the molecule `CCNC(=O)c1ccccc1Nc1nc(Nc2cc3c(cc2OC)CCN(CC(F)F)CC3)ncc1Cl` [Example 767, 2-{5-Chloro-2-[3-(2,2-difluoro-ethyl)-8-methoxy-2,3,4,5-tetrahydro-1H-benzo[d]azepin-7-ylamino]-pyrimidin-4-ylamino}-N-ethyl-benzamide], the IC50 in assay [1] was below 0.1 µM; in assay [2] it was above 10 µM.
The like results for `COc1cc2c(cc1Nc1ncc(Cl)c(Nc3cc(Cl)ccc3OC)n1)CCN(CC(F)F)CC2` [Example 768, 5-Chloro-N*4*-(5-chloro-2-methoxy-phenyl)-N*2*-[3-(2,2-difluoro-ethyl)-8-methoxy-2,3,4,5-tetrahydro-1H-benzo[d]azepin-7-yl]-pyrimidine-2,4-diamine] were, in that order, 0.1 to 1 µM and above 10 µM.
As for `COc1cc2c(cc1Nc1ncc(F)c(NC3C4C=CC(C4)C3C(N)=O)n1)CCN(CC(F)F)CC2` (stereo not drawn) [Example 769, (2-exo,3-exo)-3-{2-[3-(2,2-Difluoro-ethyl)-8-methoxy-2,3,4,5-tetrahydro-1H-benzo[d]azepin-7-ylamino]-5-fluoro-pyrimidin-4-ylamino}-bicyclo[2.2.1]hept-5-ene-2-carboxylic acid amide], the values for the IC50 in assay [1] and in assay [2] were 0.1 to 1 µM and above 10 µM, respectively.
For `COc1cc2c(cc1Nc1ncc(Cl)c(Nc3ccc(N4CCN(C)CC4)cc3OC)n1)CCN(CC(=O)N(C)C)CC2` [Example 770, 2-(7-{5-Chloro-4-[2-methoxy-4-(4-methyl-piperazin-1-yl)-phenylamino]-pyrimidin-2-ylamino}-8-methoxy-1,2,4,5-tetrahydro-benzo[d]azepin-3-yl)-N,N-dimethyl-acetamide], the IC50 in assay [1] is below 0.1 µM; in assay [2], above 10 µM.
As to `COc1cc2c(cc1Nc1ncc(Cl)c(Nc3ccc(N4CCN(C)CC4)cc3OC)n1)CCN(CCS(C)(=O)=O)CC2` [Example 771, 5-Chloro-N*2*-[3-(2-methanesulfonyl-ethyl)-8-methoxy-2,3,4,5-tetrahydro-1H-benzo[d]azepin-7-yl]-N*4*-[2-methoxy-4-(4-methyl-piperazin-1-yl)-phenyl]-pyrimidine-2,4-diamine], the half-inhibitory concentration (IC50) in assay [1] is below 0.1 µM; in assay [2] it was above 10 µM.
With `CCN1CCc2cc(Nc3ncc(Cl)c(Nc4ccc(N5CCN(C)CC5)cc4OC)n3)c(OC)cc2CC1=O` [Example 772, 7-{5-Chloro-4-[2-methoxy-4-(4-methyl-piperazin-1-yl)-phenylamino]-pyrimidin-2-ylamino}-3-ethyl-8-methoxy-1,3,4,5-tetrahydro-benzo[d]azepin-2-one], the 50% inhibitory concentration (IC50) in assay [1] is below 0.1 µM; in assay [2] it was above 10 µM.
The corresponding values for `CCN1CCc2cc(Nc3ncc(Cl)c(N[C@H]4[C@@H](C(N)=O)[C@@H]5C=C[C@H]4C5)n3)c(OC)cc2CC1` [Example 773, (1S,2S,3R,4R)-3-[5-Chloro-2-(3-ethyl-8-methoxy-2,3,4,5-tetrahydro-1H-benzo[d]azepin-7-ylamino)-pyrimidin-4-ylamino]-bicyclo[2.2.1]hept-5-ene-2-carboxylic acid amide] are below 0.1 µM and above 10 µM.
The like results for `CCCN1CCc2cc(Nc3ncc(Cl)c(N[C@H]4[C@@H](C(N)=O)[C@@H]5C=C[C@H]4C5)n3)c(OC)cc2CC1` [Example 774, (1S,2S,3R,4R)-3-[5-Chloro-2-(8-methoxy-3-propyl-2,3,4,5-tetrahydro-1H-benzo[d]azepin-7-ylamino)-pyrimidin-4-ylamino]-bicyclo[2.2.1]hept-5-ene-2-carboxylic acid amide] were, in that order, below 0.1 µM and above 10 µM.
Consider `COc1cc2c(cc1Nc1ncc(Cl)c(N[C@H]3[C@@H](C(N)=O)[C@@H]4C=C[C@H]3C4)n1)CCN(CC1CC1)CC2` [Example 775, (1S,2S,3R,4R)-3-[5-Chloro-2-(3-cyclopropylmethyl-8-methoxy-2,3,4,5-tetrahydro-1H-benzo[d]azepin-7-ylamino)-pyrimidin-4-ylamino]-bicyclo[2.2.1]hept-5-ene-2-carboxylic acid amide], for which the values for the 50% inhibitory concentration (IC50) in assay [1] and in assay [2] were below 0.1 µM and above 10 µM, respectively.
The corresponding values for `COc1cc2c(cc1Nc1ncc(Cl)c(N[C@H]3[C@@H](C(N)=O)[C@@H]4C=C[C@H]3C4)n1)CCN(C(C)C)CC2` [Example 776, (1S,2S,3R,4R)-3-[5-Chloro-2-(3-isopropyl-8-methoxy-2,3,4,5-tetrahydro-1H-benzo[d]azepin-7-ylamino)-pyrimidin-4-ylamino]-bicyclo[2.2.1]hept-5-ene-2-carboxylic acid amide] are below 0.1 µM and above 10 µM.
The corresponding values for `CCNC(=O)c1cccc(F)c1Nc1nc(Nc2cc3c(cc2OC)CCN(CC(F)F)CC3)ncc1Cl` [Example 777, 2-{5-Chloro-2-[3-(2,2-difluoro-ethyl)-8-methoxy-2,3,4,5-tetrahydro-1H-benzo[d]azepin-7-ylamino]-pyrimidin-4-ylamino}-N-ethyl-3-fluoro-benzamide] are below 0.1 µM and 1 to 10 µM.
The like results for `COc1cc2c(cc1Nc1ncc(Cl)c(Nc3ccc(N4CCN(C)CC4)cc3OC)n1)CCNC(=O)C2` [Example 778, 7-{5-Chloro-4-[2-methoxy-4-(4-methyl-piperazin-1-yl)-phenylamino]-pyrimidin-2-ylamino}-8-methoxy-1,3,4,5-tetrahydro-benzo[d]azepin-2-one] were, in that order, below 0.1 µM and above 10 µM.
As to `COc1cc2c(cc1Nc1ncc(Cl)c(Nc3ccc(N4CCN(C)CC4)c(C)c3)n1)CCN(CC(C)(F)F)CC2` [Example 779, 5-Chloro-N*2*-[3-(2,2-difluoro-propyl)-8-methoxy-2,3,4,5-tetrahydro-1H-benzo[d]azepin-7-yl]-N*4*-[3-methyl-4-(4-methyl-piperazin-1-yl)-phenyl]-pyrimidine-2,4-diamine], the results for the IC50 in assay [1] and in assay [2] were below 0.1 µM and above 10 µM, respectively.
For `COc1cc2c(cc1Nc1ncc(Cl)c(Nc3ccc(N4CCOCC4)cc3OC)n1)CCN(CC(C)(F)F)CC2` [Example 780, 5-Chloro-N*2*-[3-(2,2-difluoro-propyl)-8-methoxy-2,3,4,5-tetrahydro-1H-benzo[d]azepin-7-yl]-N*4*-(2-methoxy-4-morpholin-4-yl-phenyl)-pyrimidine-2,4-diamine], the half-inhibitory concentration (IC50) was 0.1 to 1 µM in assay [1] and above 10 µM in assay [2].
The corresponding values for `COc1cc2c(cc1Nc1ncc(Cl)c(Nc3ccc(N4CCN(C)CC4)cc3OC)n1)CCN(CC(C)(F)F)CC2` [Example 781, 5-Chloro-N*2*-[3-(2,2-difluoro-propyl)-8-methoxy-2,3,4,5-tetrahydro-1H-benzo[d]azepin-7-yl]-N*4*-[2-methoxy-4-(4-methyl-piperazin-1-yl)-phenyl]-pyrimidine-2,4-diamine] are below 0.1 µM and above 10 µM.
Turning to `COc1cc2c(cc1Nc1ncc(Cl)c(N[C@H]3[C@@H](C(N)=O)[C@@H]4C=C[C@H]3C4)n1)CCN(CC(C)(F)F)CC2` [Example 782, (1S,2S,3R,4R)-3-{5-Chloro-2-[3-(2,2-difluoro-propyl)-8-methoxy-2,3,4,5-tetrahydro-1H-benzo[d]azepin-7-ylamino]-pyrimidin-4-ylamino}-bicyclo[2.2.1]hept-5-ene-2-carboxylic acid amide], the IC50 in assay [1] was below 0.1 µM; in assay [2] it was above 10 µM.
The corresponding values for `CNC(=O)CN1CCc2cc(Nc3ncc(Cl)c(Nc4ccc(N5CCN(C)CC5)cc4OC)n3)c(OC)cc2CC1` [Example 783, 2-(7-{5-Chloro-4-[2-methoxy-4-(4-methyl-piperazin-1-yl)-phenylamino]-pyrimidin-2-ylamino}-8-methoxy-1,2,4,5-tetrahydro-benzo[d]azepin-3-yl)-N-methyl-acetamide] are below 0.1 µM and above 10 µM.
Turning to `COc1cc2c(cc1Nc1ncc(Cl)c(N[C@@H]3CCCC[C@H]3NS(C)(=O)=O)n1)CCN(CC(C)(F)F)CC2` [Example 784, N-((1R,2R)-2-{5-Chloro-2-[3-(2,2-difluoro-propyl)-8-methoxy-2,3,4,5-tetrahydro-1H-benzo[d]azepin-7-ylamino]-pyrimidin-4-ylamino}-cyclohexyl)-methanesulfonamide], the IC50 in assay [1] is below 0.1 µM; in assay [2], above 10 µM.
With `COc1cc2c(cc1Nc1ncc(Cl)c(Nc3cc(Cl)ccc3OC)n1)CCN(CC(C)(F)F)CC2` [Example 785, 5-Chloro-N*4*-(5-chloro-2-methoxy-phenyl)-N*2*-[3-(2,2-difluoro-propyl)-8-methoxy-2,3,4,5-tetrahydro-1H-benzo[d]azepin-7-yl]-pyrimidine-2,4-diamine], the IC50 is 0.1 to 1 µM in assay [1] and above 10 µM in assay [2].
The like results for `CNC(=O)c1ccccc1Nc1nc(Nc2cc3c(cc2OC)CCN(CC(C)(F)F)CC3)ncc1Cl` [Example 786, 2-{5-Chloro-2-[3-(2,2-difluoro-propyl)-8-methoxy-2,3,4,5-tetrahydro-1H-benzo[d]azepin-7-ylamino]-pyrimidin-4-ylamino}-N-methyl-benzamide] were, in that order, below 0.1 µM and above 10 µM.
The like results for `CCNC(=O)c1ccccc1Nc1nc(Nc2cc3c(cc2OC)CCN(CC(C)(F)F)CC3)ncc1Cl` [Example 788, 2-{5-Chloro-2-[3-(2,2-difluoro-propyl)-8-methoxy-2,3,4,5-tetrahydro-1H-benzo[d]azepin-7-ylamino]-pyrimidin-4-ylamino}-N-ethyl-benzamide] were, in that order, below 0.1 µM and above 10 µM.
